Laboratory results reported in patent US20200399238A1, “THERAPEUTIC AURONES” (MIDDLE TENNESSEE STATE UNIVERSITY, priority 2016, published 2020).
Read-outs that look alike come from different tables or passages of the source.

How the values were obtained:
[1] = tested on: C. albicans (ATCC strain 90028); assay: Antifungal microdilution broth assay (PrestoBlue), C. albicans; type: cell-based, Candida albicans; conditions: 100 μM; for inhibition at 100 µM: Candida albicans, ATCC90028, Table 4A, read-out: C. albicans inhibition (at 100 μM)
Procedure: Sigma-Aldrich) was used as the base medium for testing. […] solution of morpholinepropanesulfonic acid (MOPS; Sigma-Aldrich) was added to the RPMI to a final concentration of 0.165 M for buffering (RPMI-MOPS). This medium was adjusted to a pH of 7.0 with 10 M NaOH and filter sterilized. C. albicans (ATCC strain 90028), C. [NT] strain 66032), and C. tropicalis (ATCC strain 750) were cultured on potato dextrose agar (Sigma-Aldrich) plates, and incubated at 35° C. for 24 hours. For antifungal testing, overnight colonies were adjusted to 1.5×10^3 cells/mL, hereafter referred to as the test inoculum. PrestoBlue® (Life Technologies, Invitrogen, Carlsbad, Calif.), a resazurin-based cell viability reagent that, in metabolically active cells, is reduced from blue, non-fluorescent resazurin, to red, fluorescent resorufin, was used to assess inhibition of yeast growth by the aurones. […] Following addition of aurone, plates were then incubated for 24 hours at 35° C. PrestoBlue was added to a final concentration of 10% in each well and fluorescence read at 560 nm excitation and 590 nm emission, per manufacturer instructions, using a SpectraMax M2e spectrophotometer (Molecular Devices, LLC, Sunnyvale, Calif.). To optimize the PrestoBlue reduction time, RFUs were collected at 15 minute intervals for 4 hours using a reference antifungal. […] IC50 determination was calculated using GraphPad Prism version 7.01 for Windows (GraphPad Software, Inc., La Jolla, Calif.) from the RFUs at dilution points. Calculations were made with a nonlinear regression after transforming the molar concentrations of the aurones into the logarithmic form. Graphing was accomplished utilizing the same program following a four parameter curve fitting sigmoidal plot of the data. All aurones and controls were tested in triplicate and all testing was repeated in at least three independent experiments.

[2] = tested on: rat skeletal muscle cell line, L6; assay: cells; type: cell-based
Procedure: Cells were maintained in high glucose DMEM obtained from HyClone Laboratories (Logan, Utah) and supplemented with FCS and P/S at the same concentrations used for parasite culture. Cells were passaged every 3-4 days and maintained in a 37° C. humidified incubator in an atmosphere of 5% CO2. For assays. cells were detached, counted using a hemocytometer, and adjusted using fresh media to deliver 5×10^3 cells per well (90 μL) in black walled, flat clear bottom 96-well microtiter plates. After 3 h incubation for attachment, compounds diluted in culture medium were added (10 μL) to triplicate wells. Positive controls (cells treated with podophyllotoxin (Sigma, St. Louis, Mo.)), negative controls (untreated cells), solvent controls (DMSO) and media blanks were included on each plate. Following incubation for 71.5 h, 11 μL of PrestoBlue was added into each well.

[3] = tested on: Trypanosoma cruzi Tulahuen cells expressing beta-galactosidase; assay: T. cruzi intracellular assay (beta-galactosidase, L6 host cells); conditions: for IC50: Trypanosoma cruzi, TULAHUEN
[4] = tested on: Trypanosoma brucei brucei 427 cells; assay: T. brucei culture and assay (PrestoBlue); type: cell-based; conditions: for IC50: Trypanosoma brucei, mean of 2(+) independent trials, read-out: IC50 T. brucei
[5] = tested on: Leishmania amazonensis promastigotes expressing beta-lactamase; assay: microbe, parasite or virus in culture; type: cell-based; conditions: for IC50: Leishmania amazonensis, read-out: IC50 L. amaz.
Procedure: Leishmania amazonensis promastigotes expressing beta-lactamase (Buckner et al., Am. J. Trop. Med. Hyg. 72 (2005) 600-605. doi:72/5/600 [pii]) were cultured in RPMI supplemented with 10% fetal calf serum and 1% pen-strep-glut solution (Sigma) at 27° C. Stationary phase promastigotes were adjusted in fresh media, treated with compounds, and incubated at 37° C. At 24 hours, 100 uL of cultures was added to 50 uL of the CellTiter Glo® solution. Luminescence readings were taken with a spectrophotometer and used to calculate inhibition.

[6] = Rattus norvegicus, Table 3A, weighted means of two or more independent trials, read-out: IC50 L6
[7] = read-out: IC50 TC-I, Table 3A, weighted means of two or more independent trials
[8] = Table 2, L6 IC50 / T. brucei IC50
[9] = Table 3A, estimated from highest L6 dose tested where no L6 IC50
[10] = Rattus norvegicus, Table 1, read-out: IC50 Toxicity (L6)
[11] = Table 1, intracellular T. cruzi IC50
[12] = Table 2, L6 IC50 / T. cruzi IC50 (intracellular assay)
[13] = read-out: IC50 T. cruzi, Table 1, intracellular assay, mean of 2(+) trials (^c one trial)
[14] = read-out: IC50 T. cruzi, Table 2, intracellular assay, mean of 2(+) independent trials
[15] = Table 3C, estimated from highest L6 dose tested where L6 IC50 not reached

N#Cc1ccc(/C=C2\Oc3cc(O)ccc3C2=O)cc1 [Sample 9076]
inhibition at 100 µM [1]: 7.5%

O=C1/C(=C/c2ccc[nH]2)Oc2cc(O)ccc21 [Sample 2906]
inhibition at 100 µM [1]: 27.5%

COc1cc(OC)c2c(c1)O/C(=C\c1ccc(C)cc1)C2=O [Sample 7000]
inhibition at 100 µM [1]: 45.6%

O=C1/C(=C/c2ccc[nH]2)Oc2ccccc21 [Sample 2021]
inhibition at 100 µM [1]: 78.8%

COc1ccc(/C=C2\Oc3cc(O)ccc3C2=O)c(OC)c1OC [Sample 2912]
inhibition at 100 µM [1]: 54.8%

O=C1/C(=C/c2cc(Br)cs2)Oc2ccccc21 [Sample 9061]
inhibition at 100 µM [1]: 3.1%

O=C1/C(=C/c2sccc2Br)Oc2ccccc21 [Sample 9060]
inhibition at 100 µM [1]: 7.5%

COc1ccc(/C=C2\Oc3ccccc3C2=O)c(OC)c1OC [Sample 2001]
IC50 [2, 6]: > 100 µM | inhibition at 100 µM [1]: 21.9% | IC50 [3, 7]: > 50 µM

CCc1ccc(/C=C2\Oc3ccccc3C2=O)cc1 [Sample 8001]
IC50 [2, 6]: > 100 µM | inhibition at 100 µM [1]: 22.8% | IC50 [3, 7]: 11.4 µM

COc1ccc(/C=C2\Oc3cc(O)ccc3C2=O)cc1O [Sample 2911]
inhibition at 100 µM [1]: 40%

COc1ccc2c(c1)O/C(=C\c1ccc(C)cc1)C2=O [Sample 5002]
inhibition at 100 µM [1]: 37.6%

O=C1/C(=C/c2ccc(C(F)(F)F)cc2)Oc2ccccc21 [Sample 9084]
IC50 [2, 6]: > 400 µM | inhibition at 100 µM [1]: 17.6% | IC50 [3, 7]: 9.38 µM

CC(C)c1ccc(/C=C2\Oc3ccccc3C2=O)cc1 [Sample 8002]
IC50 [2, 6]: 89 µM | inhibition at 100 µM [1]: 26.6% | IC50 [3, 7]: 16.6 µM

COc1ccc2c(c1)O/C(=C\c1ccc(Br)cc1)C2=O [Sample 5005]
inhibition at 100 µM [1]: 22.4%

O=C1/C(=C/c2ncc[nH]2)Oc2ccccc21 [Sample 2026]
inhibition at 100 µM [1]: 43.8%

O=C1/C(=C/c2ccc(Br)cc2)Oc2ccccc21 [Sample 2009]
IC50 [2, 6]: > 100 µM | inhibition at 100 µM [1]: 12.3% | IC50 [3, 7]: 11.4 µM

COc1cc(Br)c(/C=C2\Oc3ccccc3C2=O)cc1OC [Sample 9056]
IC50 [2, 6]: > 100 µM | inhibition at 100 µM [1]: 12.5% | IC50 [3, 7]: 36 µM

Cc1ccccc1/C=C1\Oc2ccccc2C1=O [Sample 9057]
IC50 [2, 6]: 99.6 µM | inhibition at 100 µM [1]: 33.6% | IC50 [3, 7]: 26.3 µM

COc1ccc2c(c1)O/C(=C\c1ccc[nH]1)C2=O [Aurone 5004]
C. albicans inhibition (at 100 μM) ([1]; Table 4A): 14.7%

O=C1/C(=C/c2cccc(C(F)(F)F)c2)Oc2ccccc21 [Sample 9085]
IC50 [2, 6]: 73.4 µM | inhibition at 100 µM [1]: 20.2% | IC50 [3, 7]: 11.1 µM

O=C1/C(=C/c2ccccc2C(F)(F)F)Oc2ccccc21 [Sample 9086]
IC50 [2, 6]: 130 µM | inhibition at 100 µM [1]: 14.3% | IC50 [3, 7]: 18.5 µM

O=C1/C(=C/c2cccs2)Oc2ccccc21 [Sample 2004]
inhibition at 100 µM [1]: 65.9%

O=C1/C(=C/c2cc(Br)c(Br)s2)Oc2ccccc21 [Sample 9050]
inhibition at 100 µM [1]: 37.4%

COc1ccc2c(c1)O/C(=C\c1ccc[nH]1)C2=O [Aurone 5003]
inhibition at 100 µM [1]: 12.4%

COc1cc(OC)c2c(c1)O/C(=C\c1ccc([N+](=O)[O-])cc1)C2=O [Sample 7001]
inhibition at 100 µM [1]: 12.6%

Cc1ccc(/C=C2\Oc3ccc(Br)cc3C2=O)cc1 [Sample 6000]
inhibition at 100 µM [1]: 6.1%

O=C1/C(=C/c2ccco2)Oc2ccccc21 [Sample 2023]
inhibition at 100 µM [1]: 88.5%

O=C1/C(=C/c2ccc(Br)cc2)Oc2c1ccc(O)c2O [Sample 1005]
inhibition at 100 µM [1]: 43.9%

O=C1/C(=C/c2ccc(Br)cc2)Oc2cc(O)ccc21 [Sample 2905]
inhibition at 100 µM [1]: 16.6%

Cc1ccc(/C=C2\Oc3cc(O)ccc3C2=O)cc1 [Sample 2904]
inhibition at 100 µM [1]: 20%

COc1ccc2c(c1)O/C(=C\c1ccc(C#N)cc1)C2=O [Sample 5006]
inhibition at 100 µM [1]: 19.4%

COc1ccc(/C=C2\Oc3c(ccc(O)c3O)C2=O)cc1O [Sample 1009]
inhibition at 100 µM [1]: 99.4%

O=C1/C(=C/c2c[nH]c3ccccc23)Oc2ccccc21 [Sample 9062]
inhibition at 100 µM [1]: 16.4%

O=C1/C(=C/c2cccc3[nH]ccc23)Oc2ccccc21 [Sample 9063]
inhibition at 100 µM [1]: 24%

O=C1/C(=C/c2cccs2)Oc2c1ccc(O)c2O [Sample 1001]
inhibition at 100 µM [1]: 26%

O=C1/C(=C/c2cccs2)Oc2cc(O)ccc21 [Sample 2901]
inhibition at 100 µM [1]: 46.1%

O=C1/C(=C/c2ccc(CO)o2)Oc2ccccc21 [Sample 9067]
inhibition at 100 µM [1]: 17.6%

O=C1/C(=C/c2ccccc2)Oc2ccccc21 [Aurone 6615, (Z)-2-benzylidenebenzofuran-3(2H)-one]
Selectivity L6/Tb ([4]; Table 1): 8.22 | Selectivity L6/Tb [4, 8]: 8.22 | Selectivity L6/Tb [4, 9]: 8.22 | IC50 ([4]; Table 1): 40.1 µM | IC50 [2, 10]: 329 µM | IC50 [2, 6]: 329 µM | Selectivity L6/Tc [3, 11]: 20.88 | Selectivity L6/Tc [3, 12]: 20.88 | Selectivity L6/TC-I [3, 9]: 20.88 | IC50 [3, 13]: 15.8 µM | IC50 [3, 14]: 15.8 µM | IC50 [3, 7]: 15.8 µM | IC50 [5]: 4.13 µM | Selectivity L6/La ([5]; Table 1): 79.77

O=C1/C(=C/c2ccc(/C=C3\Oc4ccccc4C3=O)cc2)Oc2ccccc21 [Aurone 6617, (2Z,2′Z)-2,2′-(1,4-phenylenebis(methanylylidene))bis(benzofuran-3(2H)-one)]
Selectivity L6/Tb ([4]; Table 1): >11.31 | Selectivity L6/Tb [4, 8]: >11.31 | Selectivity L6/Tb [4, 15]: >11.31 | IC50 ([4]; Table 1): 35.4 µM | IC50 [2, 10]: > 400 µM | IC50 ([2]; Rattus norvegicus, Table 3C, weighted means of two or more independent trials, read-out: IC50 L6): > 400 µM | IC50 ([2]; Table 2, L6 mammalian cells, read-out: IC50 Toxicity (L6)): > 400 µM | Selectivity L6/Tc [3, 11]: >10.22 | Selectivity L6/Tc [3, 12]: >10.22 | Selectivity L6/TC-I [3, 15]: >10.22 | IC50 [3, 13]: 39.1 µM | IC50 [3, 14]: 39.1 µM | IC50 ([3]; read-out: IC50 TC-I, Table 3C, intracellular T. cruzi, weighted means of two or more independent trials): 39.1 µM | IC50 [5]: 3.62 µM | Selectivity L6/La ([5]; Table 1): >110.50 | Selectivity L6/La ([5]; Table 2, L6 IC50 / L. amazonensis IC50): >110.50

COc1ccc(/C=C2\Oc3ccccc3C2=O)cc1O [Sample 9078]
IC50 [2, 6]: 70.7 µM | inhibition at 100 µM [1]: 45.6%

O=C1/C(=C/c2ccc(F)cc2)Oc2ccccc21 [Aurone 9002, (Z)-2-(4-fluorobenzylidene)benzofuran-3(2H)-one]
IC50 ([4]; Table 1): > 50 µM | IC50 [2, 10]: > 100 µM | IC50 [2, 6]: > 100 µM | Selectivity L6/Tc [3, 11]: >6.33 | Selectivity L6/TC-I [3, 9]: >6.33 | IC50 [3, 13]: 15.8 µM | IC50 [3, 7]: 15.8 µM | IC50 [5]: 39.3 µM | Selectivity L6/La ([5]; Table 1): >2.54

O=C1/C(=C/c2cccs2)Oc2ccccc21 [Aurone 2004]
activity against T. brucei [4]: moderate activity | IC50 ([4]; Table 1): 41.8 µM | IC50 [2, 10]: > 100 µM | IC50 ([2]; Rattus norvegicus, Table 3B, weighted means of two or more independent trials, read-out: IC50 L6): > 100 µM | IC50 [3, 13]: 13.7 µM | IC50 [3, 14]: 13.7 µM | IC50 ([3]; read-out: IC50 TC-I, Table 3B, weighted means of two or more independent trials): 13.7 µM | IC50 ([3]; read-out: T. cruzi IC50 dose): 13.7 µM | IC50 [5]: < 1 µM

O=C1/C(=C/c2cccc(O)c2)Oc2ccccc21 [Aurone 9252, (Z)-2-(3-hydroxybenzylidene)benzofuran-3(2H)-one]
IC50 ([4]; Table 1): 34.9 µM | IC50 [2, 10]: > 100 µM | IC50 [3, 13]: 16.5 µM | IC50 [3, 14]: 16.5 µM | IC50 [5]: 1.52 µM
